Data: patent publication US11198695B2, “Fused ring derivative having MGAT-2 inhibitory activity” (Shionogi & Co., Ltd., priority 2017, dated 2021)

Each compound was assayed against recombinant human MGAT2 (Homo sapiens (Human), UniProt Q3SYC2) (assay: Measurement of human MGAT2 inhibitory activity). Conditions: read-out: IC50 (concentration exhibiting 50% enzyme inhibition), Table 52.
Chain of recombinant human MGAT2 (Q3SYC2 whole entry): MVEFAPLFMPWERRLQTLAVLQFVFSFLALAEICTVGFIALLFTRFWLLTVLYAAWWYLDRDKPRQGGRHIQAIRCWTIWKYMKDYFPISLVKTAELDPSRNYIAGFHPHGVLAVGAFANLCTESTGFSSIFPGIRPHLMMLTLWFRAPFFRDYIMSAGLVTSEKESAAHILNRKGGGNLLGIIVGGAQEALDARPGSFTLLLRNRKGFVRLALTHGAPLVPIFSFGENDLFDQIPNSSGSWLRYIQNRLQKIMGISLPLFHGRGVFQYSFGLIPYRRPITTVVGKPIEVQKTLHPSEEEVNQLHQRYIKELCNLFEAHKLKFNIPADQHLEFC
Type: biochemical
In short: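 RapidFire ESI-MS read-out of the diolein/diolein-d5 peak ratio gave % inhibition, with no-enzyme and full-enzyme wells as 100% and 0%. Reactions ran 1 h at room temperature at pH 7.4 (phosphate, 2 mmol/L DTT), using Flag-tagged human MGAT2 membranes from Sf9 cells and a substrate solution of 30 μmol/L 2-oleoylglycerol and 10 μmol/L oleoyl-CoA.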
`O=C(Nc1c2c(nn1CCC1CC1)C[C@]1(CCc3cc(OCC(F)(F)F)ccc31)NC2=O)c1ccco1` [Compound I-220] showed an IC50 of 35 nM. With `Cc1nnsc1C(=O)Nc1c2c(nn1CCC1CC1)C[C@]1(CCc3cc(OCC(F)(F)F)ccc31)NC2=O` [Compound I-221] the IC50 was 60 nM. For `O=C(Nc1c2c(nn1CCC1CC1)C[C@]1(CCc3cc(OCC(F)(F)F)ccc31)NC2=O)c1cscn1` [Compound I-222], the IC50 was 88 nM. `Cn1nccc1C(=O)Nc1c2c(nn1CCC1CC1)C[C@]1(CCc3cc(OCC(F)(F)F)ccc31)NC2=O` [Compound I-223] was tested, and the IC50 was 140 nM. With `Cc1oncc1C(=O)Nc1c2c(nn1CCC1CC1)C[C@]1(CCc3cc(OCC(F)(F)F)ccc31)NC2=O` [Compound I-224] the IC50 was 310 nM. `O=C(Nc1c2c(nn1CCC1CC1)C[C@]1(CCc3cc(OCC(F)(F)F)ccc31)NC2=O)c1ncco1` [Compound I-225] gave an IC50 of 40 nM. For `Cc1cnoc1C(=O)Nc1c2c(nn1CCC1CC1)C[C@]1(CCc3cc(OCC(F)(F)F)ccc31)NC2=O` [Compound I-226], the IC50 was 90 nM. With `Cc1cc(C(=O)Nc2c3c(nn2CCC2CC2)C[C@]2(CCc4cc(OCC(F)(F)F)ccc42)NC3=O)ns1` [Compound I-227] the IC50 was 370 nM. `O=C(Nc1c2c(nn1CCC1CC1)C[C@]1(CCc3cc(OCC(F)(F)F)ccc31)NC2=O)c1cncs1` [Compound I-228] showed an IC50 of 28 nM. `Cc1cc(C(=O)Nc2c3c(nn2CCC2CC2)C[C@]2(CCc4cc(OCC(F)(F)F)ccc42)NC3=O)n(C)n1` [Compound I-229] showed an IC50 of 620 nM. For `Cc1ncc(C(=O)Nc2c3c(nn2CCC2CC2)C[C@]2(CCc4cc(OCC(F)(F)F)ccc42)NC3=O)s1` [Compound I-230], the IC50 was 210 nM. Work on `O=C(Nc1c2c(nn1CCC1CC1)C[C@]1(CCc3cc(OCC(F)(F)F)ccc31)NC2=O)c1cocn1` [Compound I-231] yielded an IC50 of 47.5 nM. For `Cn1ccc(C(=O)Nc2c3c(nn2CCC2CC2)C[C@]2(CCc4cc(OCC(F)(F)F)ccc42)NC3=O)n1` [Compound I-232], the IC50 was 270 nM. Compound `C=C(C)c1ccc(-n2nc3c(c2NC(=O)CS(C)(=O)=O)C(=O)N[C@@]2(CCc4cc(OCC(F)(F)F)ccc42)C3)nc1` [Compound I-233] has an IC50 of 11 nM. `CS(=O)(=O)CC(=O)Nc1c2c(nn1CCC1CC1)C[C@]1(CCc3cc(N4CC(C(F)(F)F)C4)ccc31)NC2=O` [Compound I-234] gave an IC50 of 9.8 nM. Work on `CS(=O)(=O)CC(=O)Nc1c2c(nn1CCC1CC1)C[C@]1(CCc3cc(N4CCC4)ccc31)NC2=O` [Compound I-235] yielded an IC50 of 85 nM. Compound `CC(C)(O)c1ccc(-n2nc3c(c2NC(=O)CS(C)(=O)=O)C(=O)N[C@@]2(CCc4cc(OCC(F)(F)F)ccc42)C3)nc1` [Compound I-237] has an IC50 of 16 nM. `CC(C)c1ccc(-n2nc3c(c2NC(=O)CS(C)(=O)=O)C(=O)N[C@@]2(CCc4cc(OCC(F)(F)F)ccc42)C3)nc1` [Compound I-238] gave an IC50 of 10 nM. `CCCc1cccc(-n2nc3c(c2NC(=O)CS(C)(=O)=O)C(=O)N[C@@]2(CCc4cc(OCC(F)(F)F)ccc42)C3)c1` [Compound I-239] was tested, and the IC50 was 380 nM. Compound `CC(C)(O)c1cccc(-n2nc3c(c2NC(=O)CS(C)(=O)=O)C(=O)N[C@@]2(CCc4cc(OCC(F)(F)F)ccc42)C3)c1` [Compound I-240] has an IC50 of 1000 nM. In the case of `O=C(NCc1c2c(nn1CCC1CC1)C[C@]1(CCc3cc(OCC(F)(F)F)ccc31)NC2=O)c1ccc(O)cc1` [Compound I-241], the IC50 is reported as 380 nM. With `CS(=O)(=O)CC(=O)Nc1c2c(nn1-c1ccc(C#N)cn1)C[C@@]1(CCc3cc(C4CC4)ccc31)NC2=O` [Compound I-242] the IC50 was 3.6 nM. Work on `CS(=O)(=O)CC(=O)Nc1c2c(nn1-c1ccc(C#N)cn1)C[C@]1(CCOc3cc(OCC(F)(F)F)ccc31)NC2=O` [Compound I-243] yielded an IC50 of 3.5 nM. `COc1cccc(-n2nc3c(c2NC(=O)CS(C)(=O)=O)C(=O)N[C@@]2(CCc4cc(OCC(F)(F)F)ccc42)C3)c1` [Compound I-244] showed an IC50 of 110 nM. `CS(=O)(=O)CC(=O)Nc1c2c(nn1-c1cccc(C#N)c1)C[C@]1(CCc3cc(OCC(F)(F)F)ccc31)NC2=O` [Compound I-245] was tested, and the IC50 was 530 nM. `CS(=O)(=O)CC(=O)Nc1c2c(nn1-c1ccc3c(c1)CCC3)C[C@]1(CCc3cc(OCC(F)(F)F)ccc31)NC2=O` [Compound I-246] showed an IC50 of 24 nM. For `CS(=O)(=O)CC(=O)Nc1c2c(nn1-c1ccc3c(c1)OC(F)(F)O3)C[C@]1(CCc3cc(OCC(F)(F)F)ccc31)NC2=O` [Compound I-247], the IC50 was 84 nM. In the case of `CS(=O)(=O)CC(=O)Nc1c2c(nn1-c1cccc(C3CC3)c1)C[C@]1(CCc3cc(OCC(F)(F)F)ccc31)NC2=O` [Compound I-248], the IC50 is reported as 240 nM. For `CS(=O)(=O)CC(=O)Nc1c2c(nn1CCC1CC1)C[C@@]1(CCc3cc(OCC(F)(F)F)cc(F)c31)NC2=O` [Compound I-249], the IC50 was 3.5 nM. `CCOCCn1nc2c(c1NC(=O)CS(C)(=O)=O)C(=O)N[C@@]1(CCc3cc(OCC(F)(F)F)ccc31)C2` [Compound I-250] showed an IC50 of 150 nM. `COCCCCn1nc2c(c1NC(=O)CS(C)(=O)=O)C(=O)N[C@@]1(CCc3cc(OCC(F)(F)F)ccc31)C2` [Compound I-251] was tested, and the IC50 was 490 nM. With `COCCCn1nc2c(c1NC(=O)CS(C)(=O)=O)C(=O)N[C@@]1(CCc3cc(OCC(F)(F)F)ccc31)C2` [Compound I-252] the IC50 was 13 nM. Work on `CS(=O)(=O)CC(=O)Nc1c2c(nn1CCCC#N)C[C@]1(CCc3cc(OCC(F)(F)F)ccc31)NC2=O` [Compound I-254] yielded an IC50 of 95 nM. `CS(=O)(=O)CC(=O)Nc1c2c(nn1CCCCC(F)(F)F)C[C@]1(CCc3cc(OCC(F)(F)F)ccc31)NC2=O` [Compound I-255] gave an IC50 of 17 nM. `CS(=O)(=O)CC(=O)Nc1c2c(nn1CCC(F)(F)F)C[C@]1(CCc3cc(OCC(F)(F)F)ccc31)NC2=O` [Compound I-256] gave an IC50 of 160 nM. With `CS(=O)(=O)CC(=O)Nc1c2c(nn1CC1CCCO1)C[C@]1(CCc3cc(OCC(F)(F)F)ccc31)NC2=O` (some centres unmarked) [Compound I-257] the IC50 was 80 nM. For `CS(=O)(=O)CC(=O)Nc1c2c(nn1CCC1CCOCC1)C[C@]1(CCc3cc(OCC(F)(F)F)ccc31)NC2=O` [Compound I-258], the IC50 was 120 nM. Compound `CC1(C)CCC(Cn2nc3c(c2NC(=O)CS(C)(=O)=O)C(=O)N[C@@]2(CCc4cc(OCC(F)(F)F)ccc42)C3)O1` (some centres unmarked) [Compound I-259] has an IC50 of 59 nM. In the case of `CS(=O)(=O)CC(=O)Nc1c2c(nn1Cc1ccon1)C[C@]1(CCc3cc(OCC(F)(F)F)ccc31)NC2=O` [Compound I-260], the IC50 is reported as 490 nM. In the case of `CS(=O)(=O)CC(=O)Nc1c2c(nn1CCc1ccc(F)cc1)C[C@]1(CCc3cc(OCC(F)(F)F)ccc31)NC2=O` [Compound I-261], the IC50 is reported as 16 nM. `COc1ccc(-n2nc3c(c2NC(=O)CS(C)(=O)=O)C(=O)N[C@@]2(CCc4cc(OCC(F)(F)F)ccc42)C3)nc1` [Compound I-262] gave an IC50 of 34 nM. `Cc1ccc(-n2nc3c(c2NC(=O)CS(C)(=O)=O)C(=O)N[C@@]2(CCc4cc(OCC(F)(F)F)ccc42)C3)nn1` [Compound I-263] showed an IC50 of 4.7 nM. `Cc1cnc(-n2nc3c(c2NC(=O)CS(C)(=O)=O)C(=O)N[C@@]2(CCc4cc(OCC(F)(F)F)ccc42)C3)cn1` [Compound I-264] gave an IC50 of 86 nM. `CS(=O)(=O)CC(=O)Nc1c2c(nn1-c1cccnn1)C[C@]1(CCc3cc(OCC(F)(F)F)ccc31)NC2=O` [Compound I-265] showed an IC50 of 36 nM. For `Cc1ccc(-n2nc3c(c2NC(=O)CS(C)(=O)=O)C(=O)N[C@]2(CCc4cc(OCC(F)(F)F)ccc42)C3)cc1` [Compound I-266], the IC50 was 4.6 nM. With `Cc1cccc(-n2nc3c(c2NC(=O)CS(C)(=O)=O)C(=O)N[C@]2(CCc4cc(OCC(F)(F)F)ccc42)C3)c1` [Compound I-267] the IC50 was 9.8 nM. `CS(=O)(=O)CC(=O)Nc1c2c(nn1-c1ccc(F)cc1)C[C@@]1(CCc3cc(OCC(F)(F)F)ccc31)NC2=O` [Compound I-269] showed an IC50 of 5.5 nM. `Cc1ccc(-n2nc3c(c2NC(=O)CS(C)(=O)=O)C(=O)N[C@]2(CCc4cc(OCC(F)(F)F)ccc42)C3)nc1` [Compound I-270] showed an IC50 of 2.8 nM. `CS(=O)(=O)CC(=O)Nc1c2c(nn1-c1cnccn1)C[C@@]1(CCc3cc(OCC(F)(F)F)ccc31)NC2=O` [Compound I-271] showed an IC50 of 780 nM. With `CS(=O)(=O)CC(=O)Nc1c2c(nn1-c1ccncn1)C[C@@]1(CCc3cc(OCC(F)(F)F)ccc31)NC2=O` [Compound I-272] the IC50 was 20 nM. In the case of `CS(=O)(=O)CC(=O)Nc1c2c(nn1C1CCCCC1)C[C@@]1(CCc3cc(OCC(F)(F)F)ccc31)NC2=O` [Compound I-273], the IC50 is reported as 20 nM. In the case of `Cc1ccc(-n2nc3c(c2NC(=O)CS(C)(=O)=O)C(=O)N[C@@]2(CCOc4cc(OCC(F)(F)F)ccc42)C3)cc1` [Compound I-274], the IC50 is reported as 3.9 nM. Work on `O=C1N[C@@]2(CCc3cc(OCC(F)(F)F)cc(F)c32)Cc2nn(CCC3CC3)c(-c3nnn[nH]3)c21` [Compound I-278] yielded an IC50 of 29 nM. `CS(=O)(=O)NC(=O)c1c2c(nn1CCC1CC1)C[C@]1(CCc3cc(OCC(F)(F)F)ccc31)NC2=O` [Compound I-279] was tested, and the IC50 was 50.5 nM. Compound `O=C1N[C@@]2(CCc3cc(OCC(F)(F)F)ccc32)Cc2nn(CCC3CC3)c(-c3nn[nH]n3)c21` [Compound I-280] has an IC50 of 48 nM. For `CS(=O)(=O)CC(=O)Nc1c2c(nn1CCC1CC1)C[C@]1(CCc3cc(CN4CC(F)(F)C4)ccc31)NC2=O` [Compound I-281], the IC50 was 72 nM. For `CS(=O)(=O)CC(=O)Nc1c2c(nn1-c1ccc(C#N)cn1)C[C@]1(CCc3cc(F)cc(F)c31)NC2=O` [Compound I-284], the IC50 was 9.35 nM. `CS(=O)(=O)CC(=O)Nc1c2c(nn1-c1ccc(C(F)(F)F)cn1)C[C@]1(CCc3cc(F)cc(F)c31)NC2=O` [Compound I-285] was tested, and the IC50 was 3.5 nM.

Same assay, conditions: read-out: IC50 (concentration exhibiting 50% enzyme inhibition), Table 53
`CS(=O)(=O)CC(=O)Nc1c2c(nn1CCC1CC1)C1(Cc3ccc(OCC(F)(F)F)cc3C1)NC2=O` (centres unmarked) [II-1] gave an IC50 of 46 nM. For `CS(=O)(=O)CC(=O)Nc1c2c(nn1-c1ccc(C#N)cn1)C1(Cc3cc(F)c(F)cc3C1)NC2=O` [II-4], the IC50 was 32 nM. `Cc1cccc(-n2nc3c(c2NC(=O)CS(C)(=O)=O)C(=O)N[C@@]2(CCOc4cc(OCC(F)(F)F)ccc42)C3)c1` [II-5] gave an IC50 of 4.6 nM. `COc1ccc(-n2nc3c(c2NC(=O)CS(C)(=O)=O)C(=O)N[C@@]2(CCOc4cc(OCC(F)(F)F)ccc42)C3)cc1` [II-6] was tested, and the IC50 was 19 nM.
